Read-outs that look alike come from different tables or passages of the source.
What was measured:
[1] = biological target: FLNA pentapeptide of SEQ ID NO: 1 (Bn-VAKGL) (Homo sapiens, UniProt P21333); assay: FITC-NLX-based FLNA screening assay (inhibition of FITC-naloxone binding to Bn-VAKGL on streptavidin plates); settings: 10 nM FITC-NLX
mu opiate receptor (MOR) = assay: MOR agonist activity using [35S]GTPγS binding assay in striatal membranes; format: biochemical; settings: for MOR agonist activity ([35S]GTPγS binding), FLNA-Binding Compound as Agonist 1 μM + BFNA: 1 μM compound + 1 μM β-funaltrexamine
Experimental: To assess the mu opiate receptor (MOR) agonist activity of positive compounds from the FLNA screening, compounds were tested in a [^35S]GTPγS binding assay using striatal membranes. […] This assay measures a functional consequence of receptor occupancy at one of the earliest receptor-mediated events. The assay permits traditional pharmacological parameters of potency, efficacy and antagonist affinity, with the advantage that agonist measures are not subjected to amplification or other modulation that may occur when analyzing parameters further downstream of the receptor.
Thus, striatal tissue was homogenized in 10 volumes of ice cold 25 mM HEPES buffer, pH 7.4, which contained 1 mM EGTA, 100 mM sucrose, 50 μg/ml leupeptin, 0.04 mM PMSF, 2 μg/ml soybean trypsin inhibitor and 0.2% 2-mercaptoethanol. The homogenates were centrifuged at 800×g for 5 minutes and the supernatants were centrifuged at 49,000×g for 20 minutes. The resulting pellets were suspended in 10 volume of reaction buffer, which contained 25 mM HEPES, pH 7.5, 100 mM NaCl, 50 μg/ml leupeptin, 2 μg/ml soybean trypsin inhibitor, 0.04 mM PMSF and 0.02% […].
The resultant striatal membrane preparation (200 μg) was admixed and maintained (incubated) at 30° C. for 5 minutes in reaction buffer as above that additionally contained 1 mM MgCl2 and 0.5 nM [^35S]GTPγS (0.1 μCi/assay, PerkinElmer Life and Analytical Sciences) in a total volume of 250 μl and continued for 5 minutes in the absence or presence of 0.1-10 μM of an assayed compound of interest. The reaction was terminated by dilution with 750 μl of ice-cold reaction buffer that contained 20 mM MgCl2 and 1 mM EGTA and immediate centrifugation at 16,000×g for 5 minutes.
The resulting pellet was solubilized by sonicating for 10 seconds in 0.5 ml of immunoprecipitation buffer containing 0.5% digitonin, 0.2% sodium cholate and 0.5% NP-40. Normal rabbit serum (1 μl) was added to 1 ml of lysate and incubated at 25° C. for 30 minutes. Nonspecific immune complexes were removed by incubation with 25 μl of protein A/G-conjugated agarose beads at 25° C. for 30 minutes followed by centrifugation at 5,000×g at 4° C. for 5 minutes. The supernatant was divided and separately incubated at 25° C. for 30 minutes with antibodies raised against Gαo proteins (1:1,000 dilutions).
The immunocomplexes so formed were collected by incubation at 25° C. for 30 minutes with 40 μl of agarose-conjugated protein A/G beads and centrifugation at 5,000×g at 4° C. for 5 minutes. The pellet was washed and suspended in buffer containing 50 mM Tris-HCl, pH 8.0, and 1% NP-40. The radioactivity in the suspension was determined by liquid scintillation spectrometry.

[2] = read-out: Percent Binding Inhibition, FLNA-binding compound 0.01 μM
[3] = read-out: Percent Binding Inhibition, FLNA-binding compound 0.1 μM
[4] = read-out: Percent Binding Inhibition, FLNA-binding compound 1 μM
[5] = 0.1 μM compound relative to DAMGO
[6] = 1 μM compound + BFNA relative to DAMGO + BFNA
[7] = 1 μM compound relative to DAMGO
[8] = FLNA-binding compound 0.01 μM, read-out: Percent Binding Inhibition
[9] = FLNA-binding compound 0.1 μM, read-out: Percent Binding Inhibition
[10] = FLNA-binding compound 1 μM, read-out: Percent Binding Inhibition
[11] = Series B, 0.1 μM compound, relative to DAMGO
[12] = Series B, 0.1 μM compound, [35S]GTPγS binding to Gαo, striatal membranes
[13] = Series B, 1 μM compound + 1 μM β-FNA
[14] = Series B, 1 μM compound + β-FNA, relative to DAMGO + BFNA
[15] = Series B, 1 μM compound, relative to DAMGO
[16] = Series B, 1 μM compound, [35S]GTPγS binding to Gαo, striatal membranes
[17] = Series C-1, 0.1 μM compound, relative to DAMGO
[18] = Series C-1, 0.1 μM compound, [35S]GTPγS binding to Gαo, striatal membranes
[19] = Series C-1, 1 μM compound + 1 μM β-FNA
[20] = Series C-1, 1 μM compound + β-FNA, relative to DAMGO + BFNA
[21] = Series C-1, 1 μM compound, relative to DAMGO
[22] = Series C-1, 1 μM compound, [35S]GTPγS binding to Gαo, striatal membranes
[23] = Series C-2, 0.1 μM compound, relative to DAMGO
[24] = Series C-2, 0.1 μM compound, [35S]GTPγS binding to Gαo, striatal membranes
[25] = Series C-2, 1 μM compound + 1 μM β-FNA
[26] = Series C-2, 1 μM compound + β-FNA, relative to DAMGO + BFNA
[27] = Series C-2, 1 μM compound, relative to DAMGO
[28] = Series C-2, 1 μM compound, [35S]GTPγS binding to Gαo, striatal membranes

SMILES	inhibition at 0.01 µM [1, 2]	inhibition at 0.1 µM [1, 3]	inhibition at 1 µM [1, 4]	MOR agonist activity ([35S]GTPγS binding), FLNA-Binding Compound as Agonist 0.1 μM (mu opiate receptor (MOR); 0.1 μM compound)	% DAMGO (0.1 μM) (mu opiate receptor (MOR); [5])	MOR agonist activity ([35S]GTPγS binding), FLNA-Binding Compound as Agonist 1 μM (mu opiate receptor (MOR); 1 μM compound)	MOR agonist activity ([35S]GTPγS binding), FLNA-Binding Compound as Agonist 1 μM + BFNA (mu opiate receptor (MOR))	% DAMGO + BFNA (mu opiate receptor (MOR); [6])	% DAMGO (1 μM) (mu opiate receptor (MOR); [7])	inhibition at 0.01 µM [1, 8]	inhibition at 0.1 µM [1, 9]	inhibition at 1 µM [1, 10]	also measured
CC1CCC(C(C)C)C(OCC(O)CN2CCSCC2)C1 (stereo not drawn) [Compound A0003]	21.3%	31.6%	37.4%	176.8%	118.3%	276.0%	17.1%	64.5%	119.9%	–	–	–	–
CC1CCC(C(C)C)C(OCC(O)CN2CCN(CCN3CCOCC3)CC2)C1 (stereo not drawn) [Compound A0011]	–	–	–	236.3%	158.2%	287.5%	47.0%	177.4%	124.9%	45.7%	51.1%	52.8%	–
COc1ccccc1CC(=O)CC1c2c(cc3c(c2OC)OCO3)CC[N+]1(C)C (stereo not drawn) [Compound 5009]	42.5%	47.3%	54.3%	–	–	–	–	–	–	–	–	–	% DAMGO (0.1 μM) (mu opiate receptor (MOR); [11]): 66.9%; MOR agonist activity, percent [35S]GTPγS binding at the stated compound concentration (mu opiate receptor (MOR); [12]): 128.5%; MOR agonist activity, percent [35S]GTPγS binding at the stated compound concentration (mu opiate receptor (MOR); [13]): 87.5%; % DAMGO + BFNA (mu opiate receptor (MOR); [14]): 181.5%; % DAMGO (1 μM) (mu opiate receptor (MOR); [15]): 83.2%; MOR agonist activity, percent [35S]GTPγS binding at the stated compound concentration (mu opiate receptor (MOR); [16]): 270.4%
CCCCc1ccc(S(=O)(=O)N2CCC3(CC2)OCCN3S(=O)(=O)c2ccc(CCCC)cc2)cc1 [Compound C0030]	–	–	–	–	–	–	–	–	–	37.4%	45.4%	56%	% DAMGO (0.1 μM) (mu opiate receptor (MOR); [17]): 96.0%; Concentration of FLNA-Binding Compound as Agonist 0.1 μM (mu opiate receptor (MOR); [18]): 150.3%; Concentration of FLNA-Binding Compound as Agonist 1 μM + BFNA (mu opiate receptor (MOR); [19]): 95.0%; % DAMGO + BFNA (mu opiate receptor (MOR); [20]): 291.4%; % DAMGO (1 μM) (mu opiate receptor (MOR); [21]): 98.0%; Concentration of FLNA-Binding Compound as Agonist 1 μM (mu opiate receptor (MOR); [22]): 226.8%
CC1CCC(C(C)C)C(OCC(O)CN2CCC2)C1 (stereo not drawn) [Compound A0015]	36.3%	46.8%	55%	110.9%	64.8%	150.1%	62.5%	120.0%	56.2%	–	–	–	–
CC1CCC(C(C)C)C(OCC(O)CN2CCCCCC2)C1 (stereo not drawn) [Compound A0013]	–	–	–	102.1%	57.8%	164.8%	86.1%	131.1%	63.6%	30.2%	40.2%	47.7%	–
CC(=O)c1ccc(OCC(O)CN2CC(C)OC(C)C2)cc1 (stereo not drawn) [Compound A0044]	–	–	–	176.2%	89.8%	209.1%	134.7%	182.3%	75.8%	32.4%	36.9%	39.6%	–
CC(=O)c1ccc(S(=O)(=O)N2CCOC23CCN(CC2CC2)CC3)cc1 [Compound C0095M]	–	–	–	–	–	–	–	–	–	40.1%	46.6%	50.5%	% DAMGO (0.1 μM) (mu opiate receptor (MOR); [23]): 107.4%; MOR agonist activity, percent [35S]GTPγS binding at the stated compound concentration (mu opiate receptor (MOR); [24]): 189.1%; MOR agonist activity, percent [35S]GTPγS binding at the stated compound concentration (mu opiate receptor (MOR); [25]): 107.7%; % DAMGO + BFNA (mu opiate receptor (MOR); [26]): 489.5%; % DAMGO (1 μM) (mu opiate receptor (MOR); [27]): 88.8%; MOR agonist activity, percent [35S]GTPγS binding at the stated compound concentration (mu opiate receptor (MOR); [28]): 224.6%
CC(=O)c1ccc(S(=O)(=O)N2CC(CN(C)C)OC23CCNCC3)cc1 (stereo not drawn) [Compound C0118M]	56.6%	61.4%	62.4%	–	–	–	–	–	–	–	–	–	% DAMGO (0.1 μM) (mu opiate receptor (MOR); [23]): 87.8%; MOR agonist activity, percent [35S]GTPγS binding at the stated compound concentration (mu opiate receptor (MOR); [24]): 166.2%; MOR agonist activity, percent [35S]GTPγS binding at the stated compound concentration (mu opiate receptor (MOR); [25]): 79.2%; % DAMGO + BFNA (mu opiate receptor (MOR); [26]): 163.3%; % DAMGO (1 μM) (mu opiate receptor (MOR); [27]): 105.4%; MOR agonist activity, percent [35S]GTPγS binding at the stated compound concentration (mu opiate receptor (MOR); [28]): 261.5%
CN1CCC2(CC1)OCCN2S(=O)(=O)c1ccc(S(C)(=O)=O)cc1 [Compound C0106M]	45.8%	55.6%	58.9%	–	–	–	–	–	–	–	–	–	% DAMGO (0.1 μM) (mu opiate receptor (MOR); [23]): 102.5%; MOR agonist activity, percent [35S]GTPγS binding at the stated compound concentration (mu opiate receptor (MOR); [24]): 171.8%; MOR agonist activity, percent [35S]GTPγS binding at the stated compound concentration (mu opiate receptor (MOR); [25]): 117.2%; % DAMGO + BFNA (mu opiate receptor (MOR); [26]): 246.7%; % DAMGO (1 μM) (mu opiate receptor (MOR); [27]): 108.3%; MOR agonist activity, percent [35S]GTPγS binding at the stated compound concentration (mu opiate receptor (MOR); [28]): 240.7%
O=S(=O)(c1ccc(F)c(F)c1)N1CCC2(CC1)OCCN2S(=O)(=O)c1ccc(F)c(F)c1 [Compound C0072]	–	–	–	–	–	–	–	–	–	28.4%	37.4%	44%	% DAMGO (0.1 μM) (mu opiate receptor (MOR); [17]): 100.3%; Concentration of FLNA-Binding Compound as Agonist 0.1 μM (mu opiate receptor (MOR); [18]): 172.7%; Concentration of FLNA-Binding Compound as Agonist 1 μM + BFNA (mu opiate receptor (MOR); [19]): 67.1%; % DAMGO + BFNA (mu opiate receptor (MOR); [20]): 194.5%; % DAMGO (1 μM) (mu opiate receptor (MOR); [21]): 117.9%; Concentration of FLNA-Binding Compound as Agonist 1 μM (mu opiate receptor (MOR); [22]): 259.1%
CC(=O)c1ccc(S(=O)(=O)N2CCOC23CCNCC3)cc1 [Compound C0046]	–	–	–	–	–	–	–	–	–	30.8%	35.7%	42.2%	% DAMGO (0.1 μM) (mu opiate receptor (MOR); [23]): 197.4%; MOR agonist activity, percent [35S]GTPγS binding at the stated compound concentration (mu opiate receptor (MOR); [24]): 286.2%; MOR agonist activity, percent [35S]GTPγS binding at the stated compound concentration (mu opiate receptor (MOR); [25]): 156.8%; % DAMGO + BFNA (mu opiate receptor (MOR); [26]): 356.4%; % DAMGO (1 μM) (mu opiate receptor (MOR); [27]): 211.5%; MOR agonist activity, percent [35S]GTPγS binding at the stated compound concentration (mu opiate receptor (MOR); [28]): 492.9%
CC1CCC(C)C(OCC(O)CN2CC(C)OC(C)C2)C1 (stereo not drawn) [Compound A0022]	–	–	–	154.1%	90.0%	216.0%	28.0%	53.7%	80.9%	41.9%	49.7%	56.8%	–
COc1ccc(C(=O)CC2c3c(cc4c(c3OC)OCO4)CC[N+]2(C)C)cc1C (stereo not drawn) [Compound B0021]	32.5%	43.1%	47.6%	–	–	–	–	–	–	–	–	–	% DAMGO (0.1 μM) (mu opiate receptor (MOR); [11]): 75.9%; MOR agonist activity, percent [35S]GTPγS binding at the stated compound concentration (mu opiate receptor (MOR); [12]): 126.9%; MOR agonist activity, percent [35S]GTPγS binding at the stated compound concentration (mu opiate receptor (MOR); [13]): 42.9%; % DAMGO + BFNA (mu opiate receptor (MOR); [14]): 123.6%; % DAMGO (1 μM) (mu opiate receptor (MOR); [15]): 104.7%; MOR agonist activity, percent [35S]GTPγS binding at the stated compound concentration (mu opiate receptor (MOR); [16]): 256.4%

Reference: patent US10363239B2, “Method for inhibiting growth of cancer cells” (Pain Therapeutics, Inc., priority 2013, dated 2019)
